Measured values: paper PMC12362111, “Cu/Zn-superoxide dismutase naturally fused with a β-propeller lactonase in Deinococcus radiodurans” (The Journal of Biological Chemistry, 2025)

Experiments:
[1] = biological target: T1, DrSOD^β-pro (Deinococcus radiodurans, UniProt Q9RYV4); test: pH-indicator (p-nitrophenol, […] nm) lactonase assay; assay type: biochemical; details: pH 7.0, 20 mM CaCl2; 2 mM substrate
T1 construct: gene DR_A0202; C-terminal beta-propeller domain (Leu185-Phe462), N-terminal 6xHis removed with HRV3C, E. coli BL21(DE3), monomer and dimer

[2] = biological target: the molecule itself; test: SEC-MALS; 25 μM protein loaded on a gel filtration column (LW-803, SHODEX); MN buffer (50 mM MOPS, 100 mM NaCl, pH 7.0) for the holo forms, MN buffer with 5 mM EDTA for the metal-free apo state; monomer against dimer

Molecule | pH-indicator (p-nitrophenol, 405 nm) lactonase assay [1] | stoichiometry N [2]
O=C1Cc2ccccc2O1 [2-coumaranone] | lactonase activity of DrSOD toward 2-coumaranone was attributed to DrSOD^β-pro but not DrSOD^SOD | –
six-bladed β-propeller domain of DrSOD (DrSOD^β-pro) (domain or fragment, Deinococcus radiodurans, UniProt Q9RYV4 185-462, looked up, β-propeller (SGL) domain of DrSOD (DRA0202), Deinococcus radiodurans, UniProt Q9RYV4, residues Leu185-Phe462; Eluted as a mixture of monomer and dimer; source: E. coli BL21(DE3), purified (cOmplete His-Tag column, HRV3C, gel filtration); not shown: His6, N-terminal, cleaved) LSVRDYALPGPVDHPEGVAYDAKKGLIYTGSAQNGTIYAINAQSGAVTKFQEGGAYGRQVALGLKVDPQGRLWIAGGAQGTVSILTPDGMTLAVLETPKSPRPYINDLVLAPDGNFYVTDSSRPVIFRVDKALKLTAWLDLAGTPIKYGPGVNLNGIAATPDGKYLLAVQLNTGELWRIDLKTKAVKKVMDGLVNGDGLLLDGRTLYVARNKDQVVAKVSLSADYGSGQLVAQEPLNGLRFPATLAKVGNDLVVTQAQLDRIGGTPETPFKLTRFAKF | – | 2
